In patent US20240041042A1, “1-(PYRIDYL)-5-AZINYLPYRAZOLE DERIVATIVES, AND THEIR USE FOR CONTROL OF UNDESIRED PLANT GROWTH” (Bayer Aktiengesellschaft, priority 2020, published 2024):
Read-outs that look alike come from different tables or passages of the source.

What was measured:
Assay type in all cases: in vivo
Viola tricolor (VIOTR) [1] = test: Pre-emergence herbicidal action against VIOTR
Procedure, shortened: (§1)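 Read-out is visual percent damage relative to untreated pots, with 100% meaning dead plants and 0% meaning no difference, assessed roughly three weeks after treatment. Compounds were applied pre-emergence to the covering soil at up to 320 g/ha.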

Oryza sativa (ORYSA) = conditions: crop plant compatibility, effect in comparison to untreated controls
Procedure, shortened: (§2)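 Foliar application at the one-leaf stage: WP/EC formulation, 0.5% additive, 600 l/ha water. Greenhouse-grown in sandy loam. Endpoint is visual % injury relative to untreated controls at about 3 weeks.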

[2] = tested on: Amaranthus retroflexus (AMARE); test: Post-emergence herbicidal action against AMARE
Procedure, shortened: (§3)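 Doses of 320 g/ha or lower, suffixes a, b and c marking different dosages, were applied post-emergence at the one-leaf stage in 600 l/ha water with 0.5% additive. Damage was assessed visually after about 3 weeks in the greenhouse.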

[3] = tested on: Triticum aestivum (TRZAS); conditions: pre-emergence, crop plant compatibility, in comparison to untreated controls
Procedure, shortened: (§4)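 Scoring: visual, % of untreated control, about 3 weeks after a pre-emergence application to the soil surface. Application used WP or EC formulations diluted in water with 0.5% additive at 600 l/ha; dosage levels are marked by suffixes a, b and c.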

Zea mays (ZEAMX) [4] = conditions: pre-emergence, 80 g/ha, crop plant compatibility, in comparison to untreated controls
Procedure, shortened: as §4

Lolium rigidum (LOLRI) [5] = test: Post-emergence herbicidal action against LOLRI; conditions: dosage 320 g/ha
Procedure, shortened: as §3

Avena fatua (AVEFA) [6] = test: Post-emergence herbicidal action against AVEFA; conditions: 320 g/ha, visual rating about 3 weeks after treatment
Procedure, shortened: as §3

Lolium rigidum (LOLRI) [7] = test: Pre-emergence herbicidal action against LOLRI; conditions: dosage 320 g/ha
Procedure, shortened: as §1

[8] = tested on: Abutilon theophrasti (ABUTH); test: Post-emergence herbicidal action against ABUTH; conditions: visual rating about 3 weeks after treatment vs untreated controls (100% = plants have died, 0% = like control plants)
Procedure, shortened: as §3

[9] = tested on: Echinochloa crus-galli (ECHCG); test: Post-emergence herbicidal action against ECHCG; conditions: dosage 320 g/ha
Procedure, shortened: as §3

Setaria viridis (SETVI) [10] = test: Pre-emergence herbicidal action against SETVI
Procedure, shortened: as §1

[11] = tested on: Echinochloa crus-galli (ECHCG); test: Pre-emergence herbicidal action against ECHCG; conditions: dosage 320 g/ha
Procedure, shortened: as §1

[12] = tested on: Amaranthus retroflexus (AMARE); test: Pre-emergence herbicidal action against AMARE; conditions: visual scoring after about 3 weeks vs untreated controls
Procedure, shortened: as §1

[13] = tested on: Polygonum convolvulus (POLCO); test: Pre-emergence herbicidal action against POLCO
Procedure, shortened: as §1

[14] = tested on: Pharbitis purpurea (PHBPU); test: Post-emergence herbicidal action against PHBPU
Procedure, shortened: as §3

[15] = tested on: Polygonum convolvulus (POLCO); test: Post-emergence herbicidal action against POLCO
Procedure, shortened: as §3

[16] = tested on: Matricaria inodora (MATIN); test: Pre-emergence herbicidal action against MATIN; conditions: dosage 320 g/ha
Procedure, shortened: as §1

[17] = tested on: Alopecurus myosuroides (ALOMY); test: Post-emergence herbicidal action against ALOMY; conditions: 320 g/ha, visual rating about 3 weeks after treatment vs untreated controls (100% = plants have died, 0% = like control plants)
Procedure, shortened: as §3

[18] = tested on: Triticum aestivum (TRZAS); conditions: crop plant compatibility, effect vs untreated controls
Procedure, shortened: as §2

[19] = tested on: Verconica persica (VERPE); test: Post-emergence herbicidal action against VERPE
Procedure, shortened: as §3

[20] = tested on: Alopecurus myosuroides (ALOMY); test: Pre-emergence herbicidal action against ALOMY; conditions: scored visually after about 3 weeks, 100% = plants have died
Procedure, shortened: as §1

[21] = tested on: Pharbitis purpurea (PHBPU); test: Pre-emergence herbicidal action against PHBPU; conditions: dosage 320 g/ha
Procedure, shortened: as §1

[22] = tested on: Matricaria inodora (MATIN); test: Post-emergence herbicidal action against MATIN
Procedure, shortened: as §3

Setaria viridis (SETVI) [23] = test: Post-emergence herbicidal action against SETVI; conditions: dosage 320 g/ha
Procedure, shortened: as §3

Zea mays (ZEAMX) [24] = conditions: crop plant compatibility, 80 g/ha, effect vs untreated controls
Procedure, shortened: as §2

[25] = tested on: Verconica persica (VERPE); test: Pre-emergence herbicidal action against VERPE
Procedure, shortened: as §1

[26] = tested on: Digitaria sanguinalis (DIGSA); test: Pre-emergence herbicidal action against DIGSA
Procedure, shortened: as §1

Viola tricolor (VIOTR) [27] = test: Post-emergence herbicidal action against VIOTR
Procedure, shortened: as §3

Avena fatua (AVEFA) [28] = test: Pre-emergence herbicidal action against AVEFA; conditions: 320 g/ha, visual scoring after about 3 weeks vs untreated controls
Procedure, shortened: as §1

[29] = 320 g/ha, visual rating about 3 weeks after treatment

SMILES | Pre-emergence action against VIOTR in % (Viola tricolor (VIOTR) [1]; 320 g/ha, Viola tricolor) | Post-emergence action against ORYSA in % (Oryza sativa (ORYSA); 80 g/ha) | Post-emergence action against AMARE in % [2, 29] | Pre-emergence action against TRZAS in % ([3]; 80 g/ha) | Post-emergence action against LOLRI in % (Lolium rigidum (LOLRI) [5]) | Post-emergence action against AVEFA in % (Avena fatua (AVEFA) [6]) | Pre-emergence action against LOLRI in % (Lolium rigidum (LOLRI) [7]) | Post-emergence action against ABUTH in % ([8]; 320 g/ha) | Post-emergence action against ECHCG in % [9] | Pre-emergence action against SETVI in % (Setaria viridis (SETVI) [10]; dosage 320 g/ha) | Pre-emergence action against ECHCG in % [11] | Pre-emergence action against AMARE in % ([12]; 320 g/ha) | Pre-emergence action against POLCO in % ([13]; dosage 320 g/ha) | Post-emergence action against PHBPU in % ([14]; dosage 320 g/ha) | Post-emergence action against POLCO in % ([15]; dosage 320 g/ha) | Pre-emergence action against MATIN in % [16] | Post-emergence action against ALOMY in % [17] | Post-emergence action against VERPE in % ([19]; 320 g/ha, VERPE) | Post-emergence action against VERPE in % ([19]; dosage 80 g/ha) | Pre-emergence action against ALOMY ([20]; 320 g/ha) | further results
CCOC(=O)COc1nn(-c2ccccn2)c(-c2ccc(F)nc2)c1[N+](=O)[O-] [Example I-359] | 100% | 0% | 90% | 0% | 80% | 90% | 80% | 80% | 80% | 100% | 80% | 90% | 80% | 80% | 80% | 90% | 90% | – | – | – | Post-emergence action against ORYSA in % (Oryza sativa (ORYSA); 320 g/ha): 0%; Pre-emergence action against ZEAMX in % (Zea mays (ZEAMX) [4]): 10%; Pre-emergence action against SETVI in % (Setaria viridis (SETVI) [10]; dosage 80 g/ha): 90%
COC(=O)CCOC(=O)COc1nn(-c2cccc(C)n2)c(-c2ccc(F)nc2)c1Cl [Example I-276] | – | 10% | 90% | 0% | 80% | – | 100% | – | 80% | 90% | 90% | 90% | 80% | 90% | – | 80% | – | 90% | 80% | 80% | Post-emergence action against TRZAS in % ([18]; 80 g/ha): 0%; Post-emergence action against TRZAS in % ([18]; 320 g/ha): 20%; Pre-emergence action against TRZAS in % ([3]; 320 g/ha): 0%; Pre-emergence action against PHBPU in % [21]: 80%; Post-emergence action against MATIN in % ([22]; dosage 320 g/ha): 80%; Post-emergence action against PHBPU in % ([14]; dosage 80 g/ha): 80%; Post-emergence action against SETVI in % (Setaria viridis (SETVI) [23]): 90%
COC(=O)[C@@H](C)Oc1nn(-c2ncccc2F)c(-c2cccnc2)c1Br [Example I-03] | 100% | 0% | 90% | 10% | – | 90% | 100% | 90% | 90% | 100% | 80% | 100% | 100% | 100% | 90% | 100% | 100% | 90% | 80% | 100% | Pre-emergence action against VIOTR in % (Viola tricolor (VIOTR) [1]; dosage 80 g/ha): 100%; Post-emergence action against ZEAMX in % (Zea mays (ZEAMX) [24]): 0%; Post-emergence action against AMARE in % ([2]; 80 g/ha, visual rating about 3 weeks after treatment vs untreated controls (100% = plants have died, 0% = like control plants)): 80%; Pre-emergence action against VERPE in % ([25]; dosage 80 g/ha): 90%; Pre-emergence action against VERPE in % ([25]; dosage 320 g/ha): 100%; Post-emergence action against ABUTH in % ([8]; 80 g/ha): 80%; Pre-emergence action against DIGSA in % ([26]; 80 g/ha, visual scoring after about 3 weeks vs untreated controls): 90%; Pre-emergence action against DIGSA in % ([26]; dosage 320 g/ha): 100%; Pre-emergence action against ALOMY ([20]; 80 g/ha): 90%; Pre-emergence action against PHBPU in % [21]: 90%; Pre-emergence action against AMARE in % ([12]; 80 g/ha): 90%; Post-emergence action against MATIN in % ([22]; dosage 80 g/ha): 80%; Post-emergence action against MATIN in % ([22]; dosage 320 g/ha): 90%; Pre-emergence action against POLCO in % ([13]; dosage 80 g/ha): 90%; Post-emergence action against VIOTR in % (Viola tricolor (VIOTR) [27]; 80 g/ha): 90%; Post-emergence action against VIOTR in % (Viola tricolor (VIOTR) [27]; 320 g/ha): 90%; Post-emergence action against PHBPU in % ([14]; dosage 80 g/ha): 90%; Pre-emergence action against AVEFA in % (Avena fatua (AVEFA) [28]): 80%; Post-emergence action against POLCO in % ([15]; dosage 80 g/ha): 90%; Post-emergence action against SETVI in % (Setaria viridis (SETVI) [23]): 90%
